In ChEMBL document CHEMBL4138299, “Discovery of 3,3'-Spiro[Azetidine]-2-oxo-indoline Derivatives as Fusion Inhibitors for Treatment of RSV Infection” (ACS Med Chem Lett, 2018):

What was measured:
[1] = Cytotoxicity against human Hep2 cells after 5 days by CCK8 assay; conditions: HEp-2 cells
Human orthopneumovirus [2] = test: (§1) Antiviral activity against human respiratory syncytial virus A2 infected in Balb/c mouse assessed as reduction in lung viral load at 15 mg/kg, po administered once daily pretreated for 1 hr on day 0 followed by viral infection and subsequent compound dosing for 3 days measured after 1 day post last dose by plaque assay; format: functional
Human orthopneumovirus [3] = test: as §1, with “5” for “15”; format: functional
Human orthopneumovirus [4] = test: as §1, with “50” for “15”; format: functional
in vivo [5] = conditions: Balb/c, mouse, iv, 1 mg/kg
Description: AUC (0 to infinity) in Balb/c mouse at 1 mg/kg, iv administered as single bolus dose by LC-MS/MS analysis

[6] = Volume of distribution in Balb/c mouse at 1 mg/kg, iv administered as single bolus dose by LC-MS/MS analysis; conditions: in vivo
Human orthopneumovirus [7] = test: as §1, with “infected in po dosed Balb/c mouse” for “infected in Balb/c mouse”, “viral load administered once” for “viral load at 15 mg/kg, po administered once”; format: functional, organism-based
in vivo [8] = conditions: Balb/c, mouse, po, 10 mg/kg
Description: Oral bioavailability in Balb/c mouse at 10 mg/kg administered as single dose via gavage by LC-MS/MS analysis

in vivo [9] = conditions: Balb/c, mouse, po, 10 mg/kg; remark: listed apart in the source
Description: Tmax in Balb/c mouse at 10 mg/kg, po administered as single dose via gavage by LC-MS/MS analysis

in vivo [10] = conditions: Balb/c, mouse, po, 10 mg/kg; remark: listed apart in the source
Description: AUC (0 to infinity) in Balb/c mouse at 10 mg/kg, po administered as single dose via gavage by LC-MS/MS analysis

[11] = Half life in Balb/c mouse at 1 mg/kg, iv administered as single bolus dose by LC-MS/MS analysis; conditions: in vivo
in vivo [12] = conditions: Balb/c, mouse, po, 10 mg/kg; remark: listed apart in the source
Description: Cmax in Balb/c mouse at 10 mg/kg, po administered as single dose via gavage by LC-MS/MS analysis

[13] = Clearance in Balb/c mouse at 1 mg/kg, iv administered as single bolus dose by LC-MS/MS analysis; conditions: in vivo

Compound | CC50 at 120 h [1] [µM] | other results
O=C1N(Cc2nc3cc(Br)ccc3n2CCCCO)c2ccccc2C12CNC2 | > 100 | –
OCCCCn1c(Cn2ncc3ccccc32)nc2ccccc21 | > 100 | –
O=C1N(Cc2nc3cc(F)ccc3n2CCCCO)c2ccccc2C12CC2 | > 100 | –
O=C1N(Cc2nc3cc(Br)ccc3n2CCCCO)c2ccccc2C12CCOC2 (stereo unspecified) | > 100 | –
CC1CC(=O)N(Cc2nc3ccccc3n2CCCCO)c2ccccc2N1 (stereo unspecified) | > 100 | –
Cc1cc(=O)n(Cc2nc3ccccc3n2CCCCO)c2ccccc12 | > 100 | –
Cc1c2c(nn1Cc1nc3ccccc3n1CCCCO)CCCC2 | > 100 | –
CS(=O)(=O)N1CC2(C1)C(=O)N(Cc1nc3cc(Br)ccc3n1CCCCO)c1ccccc12 | > 100 | –
CC(C)OC(=O)N1CC2(C1)C(=O)N(Cc1nc3cc(Br)ccc3n1CCCCO)c1ccccc12 | > 100 | log(activity) (Human orthopneumovirus [2]): 2.05; log(activity) (Human orthopneumovirus [3]): 1.64; log(activity) (Human orthopneumovirus [4]): 3.91; AUC(0-inf) (in vivo [5]): 1.13 µM·h; Vd [6]: 1.6 L/kg; Activity (Human orthopneumovirus [7]): Dose-dependent effect; bioavailability (in vivo [8]): 71%; Tmax (in vivo [9]): 15 min; AUC(0-inf) (in vivo [10]): 8.08 µM·h; half-life [11]: 84 min; Cmax (in vivo [12]): 3.32 µM; clearance [13]: 28 mL/min/kg
NCc1ccc2c(c1)nc(CN1C(=O)C3(CC3)c3ccccc31)n2CCCCO | > 100 | –
O=C1N(Cc2nc3ccccc3n2CCCCO)c2ccccc2C12CC2 | > 100 | –
CS(=O)(=O)N1CCC2(C1)C(=O)N(Cc1nc3cc(Br)ccc3n1CCCCO)c1ccccc12 (stereo unspecified) | > 100 | –
O=C1NC(=O)C2(N1)C(=O)N(Cc1nc3cc(Br)ccc3n1CCCCO)c1ccccc12 (stereo unspecified) | > 100 | –
CN1CCC2(CC1)C(=O)N(Cc1nc3cc(Br)ccc3n1CCCCO)c1ccccc12 | > 100 | –
CC(C)OC(=O)N1CCC2(C1)C(=O)N(Cc1nc3cc(Br)ccc3n1CCCCO)c1ccccc12 (stereo unspecified) | > 100 | –
N#Cc1cn(Cc2nc3ccccc3n2CCCCO)c2ccccc12 | > 100 | –
O=C1N(Cc2nc3ccccc3n2CCCCO)c2cc(F)ccc2C12CC2 | > 100 | –
O=C1N(Cc2nc3cc(I)ccc3n2CCCCO)c2ccccc2C12CC2 | > 100 | –
CN1CC2(C1)C(=O)N(Cc1nc3cc(Br)ccc3n1CCCCO)c1ccccc12 | > 100 | –
Cc1nc(=O)n(Cc2nc3ccccc3n2CCCCO)c2ccccc12 | > 100 | –
O=C1N(Cc2nc3cc(Cl)ccc3n2CCCCO)c2ccccc2C12CC2 | > 100 | –
Cc1nn(Cc2nc3ccccc3n2CCCCO)c2ccccc12 | > 100 | –

Compound | CC50 at 120 h [1] [µM] | other results
OCCCCn1c(Cn2ncc3ccncc32)nc2ccccc21 | > 100 | –
CC1(C)C(=O)N(Cc2nc3ccccc3n2CCCCO)c2ccccc21 | > 100 | –
OCCCCn1c(Cn2c(C(F)(F)F)nc3ccccc32)nc2ccccc21 | > 100 | –
CC(C)C(=O)N1CC2(C1)C(=O)N(Cc1nc3cc(Br)ccc3n1CCCCO)c1ccccc12 | > 100 | –
O=C1N(Cc2nc3ccccc3n2CCCCO)c2cnccc2C12CC2 | > 100 | –
O=C1N(Cc2nc3ccccc3n2CCCCO)CN(c2ccccc2)C12CCNCC2 | > 100 | –
O=c1oc2ccccc2n1Cc1nc2ccccc2n1CCCCO | > 100 | –
O=C1N(Cc2nc3cc(C4CCCCC4)ccc3n2CCCCO)c2ccccc2C12CC2 | > 100 | –
OCCCCn1c(Cn2ccc3ccncc32)nc2ccccc21 | > 100 | –
CC(C)C(=O)N1CCC2(C1)C(=O)N(Cc1nc3cc(Br)ccc3n1CCCCO)c1ccccc12 (stereo unspecified) | > 100 | –
O=C1N(Cc2nc3cc(Br)ccc3n2CCCCO)c2ccccc2C12CCOCC2 | > 100 | –
Cc1nn(Cc2nc3ccccc3n2CCCCO)c2c1CCCC2 | > 100 | –
OCCCCn1c(Cn2c(-c3cscn3)nc3ccccc32)nc2ccccc21 | > 100 | –
O=C1N(Cc2nc3cc(Br)ccc3n2CCCCO)c2ccccc2C12CS(=O)(=O)C2 | > 100 | –
Cc1ccc2c(c1)nc(CN1C(=O)C3(CC3)c3ccccc31)n2CCCCO | > 100 | –
OCCCCn1c(Cn2c3c(c4ccccc42)CCNC3)nc2ccccc21 | > 100 | –
CN1CCOC2(C1)C(=O)N(Cc1nc3cc(Br)ccc3n1CCCCO)c1ccccc12 (stereo unspecified) | > 100 | –
O=C1N(Cc2nc3cc(C(F)(F)F)ccc3n2CCCCO)c2ccccc2C12CC2 | > 100 | –
N#Cc1ccc2c(c1)nc(CN1C(=O)C3(CC3)c3ccccc31)n2CCCCO | > 100 | –
O=C1N(Cc2nc3cc(Br)ccc3n2CCCCO)c2ccccc2C12CSC2 | > 100 | –
O=C1N(Cc2nc3cc(Br)ccc3n2CCCCO)c2ccccc2C12CCN(C1COC1)CC2 | > 100 | –
O=C1N(Cc2nc3cc(Br)ccc3n2CCCCO)c2ccccc2C12CC2 | > 100 | –
